Experiments:
[1] = Caco-2 intrinsic permeability; type: in vitro ADME; settings: human, read-out: Cell-permeability (Papp)
Source text: We next performed further profiling of the most promising compound 5 and its matched pair neutral analogue 27, by measuring intrinsic permeability in a Caco-2 assay (Table S3). […] This was further confirmed using Immortalized Human Total Liver Cell Population (IHTLCP) and HeLa cells (Figures S22 and S23). […] This observed cytotoxicity of 5 can be linked to its potent G4 binding and stabilization, as it can potentially act as a pan-G4 stabilizer and affect various G4-regulated cellular processes, such as telomere maintenance, gene transcription, and DNA replication.
Physicochemical properties
The Physicochemical profiling (LogD, Solubility, Caco-2 cell permeability) was performed as previously
described.8 Cell viability was performed as described below.
Table S2. Pharmacokinetic Properties
Compound Structure logD, Solubility, Rat hepsa Human mics b

[2] = system: Tba (thrombin binding aptamer); assay: FRET melting assay, Tba G4 DNA; settings: 5 at 2 μM, 27 at 5 μM; G4 DNA 0.2 μM
Experimental: Additional G4 DNA structures were examined in the FRET melting assay to study the selectivity of compound (5) and its methylated analogue (27) toward different G4 structures. Compounds 5 and 27 were tested at 2 and 5 μM, respectively, for their abilities to increase the thermal stability of G4 DNA structures (Figure 6C and Table S1). Overall, this confirms that compound 5 is a much stronger G4 stabilizer, as compared to 27.
Synthetic labeled oligonucleotides for the FRET study were purchased from Eurofins Genomics. Stock solutions were prepared in MQ-water at 100 μM concentration. The sequences used are listed in Supporting Information Table S1. All the oligonucleotides except Pu22 were prefolded in 10 mM lithium cacodylate buffer (pH 7.4), with 10 mM KCl and 90 mM LiCl by heating for 10 min at 95 °C and then cooling in fridge for at least 1 h. […]
The FRET occurs between two dyes (5′-FAM as donor and 3′-TAMRA as acceptor) linked at both extremities of a DNA oligonucleotide. […] This process can be detected by a reduction in the fluorescence emission of the donor. Fluorescence emission of the donor is recovered when the temperature increment triggers the thermal denaturation of the G4 structure. […] The stabilization (ΔTm) is calculated from comparison of Tm of the fluorescently labeled oligonucleotide in the presence or absence of the ligand.

[3] = system: c-MYC Pu22 G4 DNA in the presence of competitor dsDNA (ds26); assay: FRET melting competition assay with dsDNA (ds26); type: binding, human; settings: 5 at 2 μM, 27 at 5 μM; 0–100 equiv ds26
Experimental: (§1) We next challenged the compounds’ G4 selectivity with a FRET melting competition assay using 5 (2 μM) and 27 (5 μM) with c-MYC Pu22 G4 DNA and increasing amounts of dsDNA (Figure 6D and Table S1). […] In addition, we investigated if we could detect any binding of the compounds to dsDNA using MST with a fluorescently labeled dsDNA (Table S1).
The FRET occurs between two dyes (5′-FAM as donor and 3′-TAMRA as acceptor) linked at both extremities of a DNA oligonucleotide. When the oligonucleotides are folded into G4 structures, the donor and acceptor are in proximity, which results in an energy transfer from the donor to the acceptor. This process can be detected by a reduction in the fluorescence emission of the donor. Fluorescence emission of the donor is recovered when the temperature increment triggers the thermal denaturation of the G4 structure. The experiments were performed in a Bio-Rad CFX96 real-time PCR device at temperatures from 10 to 95 °C at 1.5 °C/m heating rate using a 492 nm excitation wavelength and a 516 nm detection wavelength in 96-well plates. Each condition was tested in duplicate, and analysis of the data was carried out by using Excel and Origin 8 software. […] The stabilization (ΔTm) is calculated from comparison of Tm of the fluorescently labeled oligonucleotide in the presence or absence of the ligand.

dsDNA (5'Cy5-ds26) = assay: MST with fluorescently labeled dsDNA; type: binding
Experimental: as §1
5′-Cy5 labeled G4 DNAs for this study were purchased from Eurofins Genomics. Stock solutions were prepared in water at 100 μM concentration. The sequences used are listed in Supporting Information Table S1. The G4 DNA sequences were folded in KCl buffer (10 mM phosphate, 100 mM KCl, pH 7.4) by heating at 95 °C for 5 min and then cooling to room temperature. All the experiments were performed in 10 mM phosphate pH 7.4, 100 mM KCl, and 0.05% Tween20. The labeled DNA concentration is held constant at 25 nM, and ligand concentration is varied depending on ligands Kd (16 1:3 dilutions). The samples were loaded into standard MST graded glass capillaries and initial fluorescence intensity of the capillary was measured using Monolith NT.115 (Nano Temper, Germany) with 20% LED power. The change in fluorescence with ligand’s concentrations were plotted in Excel and fitted through nonlinear equation to obtain the binding constants.

c-MYC Pu22 G4 DNA = assay: 1H NMR titration with c-MYC Pu22 G4 DNA; type: binding, human; settings: DNA 90 μM; 298 K
Source text: To study the interactions of compounds 5 and 27 with G4 DNA in more detail, we performed a nuclear magnetic resonance (NMR) titration assay for both compounds with c-MYC Pu22 G4 DNA. In this assay, we monitored chemical shift alterations and the broadening of the well-defined imino protons from the G4 DNA located at 10–12 ppm in the NMR spectrum upon the addition of different compound concentrations. […] Although it is challenging to conclude the details of the binding interactions, the observed impact on the protons in the 3′ quartet for both compounds, especially compound 27, strongly implies the presence of an end-stacking type of interaction.
The G4 DNA stock solutions were prepared by folding 100 μM c-MYC Pu22 in 10 mM potassium phosphate buffer (pH = 7.4) and 35 mM KCl by heating at 95 °C for 10 min and cooling to ambient temperature overnight. 10% D2O was added to the DNA stock solutions, yielding a final DNA concentration of 90 μM. NMR samples were prepared by sequential addition of 5 or 27 from 2 or 10 mM DMSO-d6 stock solutions to 200 μL of the DNA solution which was then transferred to 3 mm NMR tubes. […] All spectra were recorded at 298 K on a Bruker 850 MHz Avance III HD spectrometer equipped with a 5 mm TCI cryoprobe. Excitation sculpting was used in the 1D 1H experiments, and 256 scans were recorded. Processing of spectra was performed in MestreNova 10.0.2.

Compound | Papp [1] [×10⁻⁶ cm/s] | effect on thermal stability of Tba [2] | change in compound-induced thermal stability of c-MYC Pu22 G4 DNA with increasing dsDNA [3] | binding to dsDNA (MST) (dsDNA (5'Cy5-ds26)) | binding by NMR titration (imino protons) (c-MYC Pu22 G4 DNA)
Cc1cc(C)c2nc(Nc3nc(C)cc(NCCCN(C)C)n3)nc(C)c2c1 [Compound 5, N4-(3-(Dimethylamino)propyl)-6-methyl-N2-(4,6,8-trimethylquinazolin-2-yl)pyrimidine-2,4-diamine] | < 0.13 | Neither compound affected the thermal stability | No significant change | no binding could be observed | bind
Cc1cc(C)c2nc(Nc3nc(C)cc(C)n3)nc(C)c2c1 [Compound 27, N-(4,6-Dimethylpyrimidin-2-yl)-4,6,8-trimethylquinazolin-2-amine] | 70 | Neither compound affected the thermal stability | No significant change | no binding could be observed | bind
